US10960005B2, “Treatment of relapsed and/or refractory solid tumors and non-hodgkin's lymphomas” (CELGENE QUANTICEL RESEARCH, INC., priority 2016, dated 2021)

Legend:
[1] = Exploratory toxicity study in dogs; format: in vivo; conditions: 0.5 mg/kg/dose QOD
[2] = Pharmacokinetics after single IV and oral dose, Sprague Dawley rats; format: in vivo; conditions: Rat, female
Description: (§1) AUClast=area under the plasma concentration-time curve from time zero to time of last measurable concentration; Cmax=maximum plasma concentration; F=oral bioavailability; hr=hour, PK=pharmacokinetic; SD=standard deviation; t1/2 z=apparent half-life of the terminal phase of the concentration-time curve; tmax=time of Cmax. In mouse, PK parameters were determined using composite plasma samples obtained from n=3animals/time point. In other species, PK parameters are from n=3 animals and values shown are mean and SD (in parentheses).

[3] = Pharmacokinetics after single IV and oral dose, CD-1 mice; format: in vivo; conditions: Mouse, female
Description: as §1

[4] = molecular target: MDR1 (human P-gp) MDCK cells (Homo sapiens (Human), UniProt P08183); assay: Permeability in MDR1 (human P-gp) MDCK cells; conditions: B→A direction
MDR1 (human P-gp) MDCK cells, sequence (P08183 whole entry): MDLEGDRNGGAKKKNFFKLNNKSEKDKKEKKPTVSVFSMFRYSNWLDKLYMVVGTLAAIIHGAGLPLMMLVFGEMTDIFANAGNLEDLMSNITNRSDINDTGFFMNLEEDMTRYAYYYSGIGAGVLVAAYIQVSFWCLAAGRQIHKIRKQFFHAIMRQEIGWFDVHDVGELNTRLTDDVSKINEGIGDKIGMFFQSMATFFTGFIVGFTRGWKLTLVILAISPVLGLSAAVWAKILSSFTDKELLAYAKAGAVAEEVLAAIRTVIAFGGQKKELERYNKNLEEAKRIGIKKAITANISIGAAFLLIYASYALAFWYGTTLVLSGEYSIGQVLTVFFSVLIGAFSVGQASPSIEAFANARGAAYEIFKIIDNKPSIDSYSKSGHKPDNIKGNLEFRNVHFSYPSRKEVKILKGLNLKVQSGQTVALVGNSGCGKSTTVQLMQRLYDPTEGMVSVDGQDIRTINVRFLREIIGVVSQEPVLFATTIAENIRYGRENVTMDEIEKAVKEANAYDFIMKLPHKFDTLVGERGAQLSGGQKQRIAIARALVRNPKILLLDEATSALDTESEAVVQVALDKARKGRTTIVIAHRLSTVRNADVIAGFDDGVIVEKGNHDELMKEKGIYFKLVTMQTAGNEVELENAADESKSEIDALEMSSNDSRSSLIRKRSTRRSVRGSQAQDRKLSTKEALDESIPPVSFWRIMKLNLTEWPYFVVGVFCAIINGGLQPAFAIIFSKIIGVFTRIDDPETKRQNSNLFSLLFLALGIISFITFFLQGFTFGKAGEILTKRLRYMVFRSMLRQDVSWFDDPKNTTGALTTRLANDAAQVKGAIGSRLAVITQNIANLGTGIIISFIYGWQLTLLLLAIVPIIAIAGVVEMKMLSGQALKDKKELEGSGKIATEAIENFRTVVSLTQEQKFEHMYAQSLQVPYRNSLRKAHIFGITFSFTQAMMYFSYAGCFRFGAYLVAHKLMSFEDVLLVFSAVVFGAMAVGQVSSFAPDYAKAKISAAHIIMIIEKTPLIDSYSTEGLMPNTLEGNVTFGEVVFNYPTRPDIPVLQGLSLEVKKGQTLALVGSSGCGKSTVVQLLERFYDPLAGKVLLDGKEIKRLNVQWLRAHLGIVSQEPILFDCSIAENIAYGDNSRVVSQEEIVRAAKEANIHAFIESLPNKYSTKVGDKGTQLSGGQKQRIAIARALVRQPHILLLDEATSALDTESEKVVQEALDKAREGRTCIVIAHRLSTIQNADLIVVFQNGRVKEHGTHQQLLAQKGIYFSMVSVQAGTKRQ

MS-1 hMCC xenograft = assay: Efficacy in MS-1 hMCC xenograft (NSG mice); format: in vivo; conditions: 5 mg/kg PO 5 on/2 off; head prints Day-15, TGI analysis on Day 36
[5] = test system: ST18 and FREM2 expression in MKL-1 tumors; assay: In vivo xenograft dose-response of PD biomarker gene expression, MKL-1; parameters: species or system mice; conditions: 1, 2.5, or 5 mg/kg PO BID ×4.5; tumors 4 h after last dose
Excerpt: Female NSG mice bearing palpable hMCC MKL-1 and MS-1 tumors were randomized into four groups of three mice each. […] The fourth group was orally administered vehicle as a control on the BID schedule. Four hours after the last dosing, tumors were collected into RNA later and stored frozen.
Total RNA was eluted in RNase-free water and analyzed by qRT-PCR.

COc1ccc(-c2c(-c3ccc(C#N)c(F)c3)nc(N3CCC(N)CC3)n(C)c2=O)cc1F [Compound A]
primary findings [1]: Marked thrombocytopenia and acute hemorrhage in mesenteric and mandibular lymph nodes | AUC∞ ([2]; single IV 5 mg base/kg): 733 ng·h/mL | CL ([2]; single IV 5 mg base/kg): 115 mL/min/kg | Vss ([2]; single IV 5 mg base/kg): 0.2625 L/kg | t1/2,z ([2]; single IV 5 mg base/kg): 3.6 h | % F ([2]; single oral 5 mg base/kg): 33% | AUClast ([2]; single oral 5 mg base/kg): 222 ng·h/mL | Cmax ([2]; single oral 5 mg base/kg): 47 ng/mL | t1/2,z ([2]; single oral 5 mg base/kg): 3.0 h | tmax ([2]; single oral 5 mg base/kg): 2.0 h | % F ([2]; single oral 15 mg base/kg): 28% | AUClast ([2]; single oral 15 mg base/kg): 570 ng·h/mL | Cmax ([2]; single oral 15 mg base/kg): 123 ng/mL | t1/2,z ([2]; single oral 15 mg base/kg): 2.9 h | tmax ([2]; single oral 15 mg base/kg): 2.0 h | % F ([2]; single oral 50 mg base/kg): 74% | AUClast ([2]; single oral 50 mg base/kg): 4652 ng·h/mL | Cmax ([2]; single oral 50 mg base/kg): 621 ng/mL | t1/2,z ([2]; single oral 50 mg base/kg): 3.0 h | tmax ([2]; single oral 50 mg base/kg): 6.0 h | AUC∞ ([3]; single IV 5 mg base/kg): 2664 ng·h/mL | CL ([3]; single IV 5 mg base/kg): 32 mL/min/kg | Vss ([3]; single IV 5 mg base/kg): 7.51 L/kg | t1/2,z ([3]; single IV 5 mg base/kg): 3.8 h | % F ([3]; single oral 10 mg base/kg): 38% | Cmax ([3]; single oral 10 mg base/kg): 510 ng/mL | t1/2,z ([3]; single oral 10 mg base/kg): 1.7 h | tmax ([3]; single oral 10 mg base/kg): 0.5 h | permeability [4]: 16.5 ×10⁻⁶ cm/s | Median Tumor Volumes Day-15 (MS-1 hMCC xenograft): 129 mm^3 | ST18 and FREM2 change in gene expression in vivo [5]: ≥ 2 fold
